Results: PubChem BioAssay AID1919003 (Molecular Pharmacology Branch, DTP, NCI, 2023)

Test system: 786-0 complex spheroids with HUVEC/MSC, growth % test/control
Assay: Anticancer human tumor 786-0 cell line growth inhibition [AhR];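 further: compound exposure lasted seven days before the read-out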
Conditions: for IC50: curve of first compound; for viability, T/C: stronger effect = lower value
How it was run: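 Agents were dosed in half-log steps down from roughly clinical Cmax, or from 10 microM where Cmax was unknown, alone and with AhR antagonists. Read-out: percent test/control growth of tumor spheroids containing HUVEC and MSC stromal cells.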

[1] = second compound 0.1 µM, first compound 0.00316 µM
[2] = second compound 0.1 µM, first compound 0.01 µM
[3] = second compound 0.1 µM, first compound 0.0316 µM
[4] = second compound 0.1 µM, first compound 0.1 µM
[5] = second compound 0.316 µM, first compound 0.00316 µM
[6] = second compound 0.316 µM, first compound 0.01 µM
[7] = second compound 0.316 µM, first compound 0.0316 µM
[8] = second compound 0.316 µM, first compound 0.1 µM
[9] = second compound 1 µM, first compound 0.00316 µM
[10] = second compound 1 µM, first compound 0.01 µM
[11] = second compound 1 µM, first compound 0.0316 µM
[12] = second compound 1 µM, first compound 0.1 µM
[13] = second compound 3.16 µM, first compound 0.00316 µM
[14] = second compound 3.16 µM, first compound 0.01 µM
[15] = second compound 3.16 µM, first compound 0.0316 µM
[16] = second compound 3.16 µM, first compound 0.1 µM
[17] = second compound 10 µM, first compound 0.00316 µM
[18] = second compound 10 µM, first compound 0.01 µM
[19] = second compound 10 µM, first compound 0.0316 µM
[20] = second compound 10 µM, first compound 0.1 µM
[21] = second compound 0.1 µM, first compound 0.316 µM
[22] = second compound 0.1 µM, first compound 1 µM
[23] = second compound 0.1 µM, first compound 3.16 µM
[24] = second compound 0.1 µM, first compound 10 µM
[25] = second compound 0.316 µM, first compound 0.316 µM
[26] = second compound 0.316 µM, first compound 1 µM
[27] = second compound 0.316 µM, first compound 3.16 µM
[28] = second compound 0.316 µM, first compound 10 µM
[29] = second compound 1 µM, first compound 0.316 µM
[30] = second compound 1 µM, first compound 1 µM
[31] = second compound 1 µM, first compound 3.16 µM
[32] = second compound 1 µM, first compound 10 µM
[33] = second compound 3.16 µM, first compound 0.316 µM
[34] = second compound 3.16 µM, first compound 1 µM
[35] = second compound 3.16 µM, first compound 3.16 µM
[36] = second compound 3.16 µM, first compound 10 µM
[37] = second compound 10 µM, first compound 0.316 µM
[38] = second compound 10 µM, first compound 1 µM
[39] = second compound 10 µM, first compound 3.16 µM
[40] = second compound 10 µM, first compound 10 µM

| Compound | IC50 (second compound 0.1 µM) | IC50 (second compound 0.316 µM) | IC50 (second compound 1 µM) | IC50 (second compound 3.16 µM) | IC50 (second compound 10 µM) | viability, T/C [3] | viability, T/C [4] | viability, T/C [7] | viability, T/C [8] | viability, T/C [11] | viability, T/C [12] | viability, T/C [15] | viability, T/C [16] | viability, T/C [19] | viability, T/C [20] | viability, T/C [21] | viability, T/C [22] | viability, T/C [25] | viability, T/C [26] | viability, T/C [29] | also measured |
| --- | --- | --- | --- | --- | --- | --- | --- | --- | --- | --- | --- | --- | --- | --- | --- | --- | --- | --- | --- | --- | --- |
| CC[C@@]1(O)C(=O)OCc2c1cc1n(c2=O)Cc2cc3c(CN(C)C)c(O)ccc3nc2-1 + Cc1ccccc1N=Nc1ccc(NC(=O)c2ccnn2C)c(C)c1 | 48.5 nM | 41 nM | 38.8 nM | 30.9 nM | 27 nM | 68.1% | 19.6% | 59.8% | 16.6% | 57.3% | 15.9% | 49.1% | 18.7% | 44.6% | 16.7% | – | – | – | – | – | viability, T/C (second compound 0.1 µM, first compound 0.000316 µM): 107%; viability, T/C (second compound 0.1 µM, first compound 0.001 µM): 103%; viability, T/C [1]: 104%; viability, T/C [2]: 109%; viability, T/C (second compound 0.316 µM, first compound 0.000316 µM): 101%; viability, T/C (second compound 0.316 µM, first compound 0.001 µM): 99.4%; viability, T/C [5]: 107%; viability, T/C [6]: 103%; viability, T/C (second compound 1 µM, first compound 0.000316 µM): 102%; viability, T/C (second compound 1 µM, first compound 0.001 µM): 101%; viability, T/C [9]: 106%; viability, T/C [10]: 103%; viability, T/C (second compound 3.16 µM, first compound 0.000316 µM): 96.4%; viability, T/C (second compound 3.16 µM, first compound 0.001 µM): 101%; viability, T/C [13]: 93.4%; viability, T/C [14]: 92.3%; viability, T/C (second compound 10 µM, first compound 0.000316 µM): 90.7%; viability, T/C (second compound 10 µM, first compound 0.001 µM): 89.5%; viability, T/C [17]: 86.4%; viability, T/C [18]: 83.6% |
| COc1cc(C2c3cc4c(cc3C(OC3OC5COC(C)OC5C(O)C3O)C3COC(=O)C23)OCO4)cc(OC)c1O (stereo not given) + Cc1ccccc1N=Nc1ccc(NC(=O)c2ccnn2C)c(C)c1 | 937 nM | 873 nM | 1060 nM | 885 nM | 723 nM | 110% | 110% | 110% | 105% | 107% | 107% | 103% | 82.9% | 96.8% | 91.7% | 85.2% | 46.2% | 86.2% | 41.6% | 81.4% | viability, T/C [23]: 24.2%; viability, T/C [24]: 9.45%; viability, T/C [27]: 27.5%; viability, T/C [28]: 10.3%; viability, T/C [30]: 50.4%; viability, T/C [31]: 26.8%; viability, T/C [32]: 10.3%; viability, T/C [33]: 78%; viability, T/C [34]: 46.4%; viability, T/C [35]: 21.1%; viability, T/C [36]: 7.16%; viability, T/C [37]: 68.4%; viability, T/C [38]: 42.6%; viability, T/C [39]: 19.4%; viability, T/C [40]: 7% |
| COc1cccc2c1C(=O)c1c(O)c3c(c(O)c1C2=O)CC(O)(C(=O)CO)CC3OC1CC(N)C(O)C(C)O1 (stereo not given) + Cc1ccccc1N=Nc1ccc(NC(=O)c2ccnn2C)c(C)c1 | 126 nM | 122 nM | 132 nM | 119 nM | 76.5 nM | 73.8% | 56.6% | 69.3% | 55.7% | 77.4% | 57.4% | 66.6% | 55.2% | 57.6% | 48.8% | 24.7% | 9.36% | 24.7% | 10.1% | 26.7% | viability, T/C [23]: 1.43%; viability, T/C [24]: 1.74%; viability, T/C [27]: 2.44%; viability, T/C [28]: 3.3%; viability, T/C [30]: 9.75%; viability, T/C [31]: 1.55%; viability, T/C [32]: 1.78%; viability, T/C [33]: 24.5%; viability, T/C [34]: 9.36%; viability, T/C [35]: 1.41%; viability, T/C [36]: 1.09%; viability, T/C [37]: 22.4%; viability, T/C [38]: 9.51%; viability, T/C [39]: 1.98%; viability, T/C [40]: 1.15% |
| Nc1ccn(C2OC(CO)C(O)C2(F)F)c(=O)n1 (stereo not given) + Cc1ccccc1N=Nc1ccc(NC(=O)c2ccnn2C)c(C)c1 | < 31.6 nM | < 31.6 nM | < 31.6 nM | < 31.6 nM | < 31.6 nM | 8.08% | 6.67% | 7.8% | 6.77% | 6.79% | 6.35% | 7.91% | 5.76% | 9.54% | 8.5% | 7.73% | 5.06% | 5.95% | 8.69% | 7.35% | viability, T/C [23]: 7.17%; viability, T/C [24]: 6.66%; viability, T/C [27]: 7.54%; viability, T/C [28]: 7.11%; viability, T/C [30]: 5.82%; viability, T/C [31]: 7.07%; viability, T/C [32]: 6.7%; viability, T/C [33]: 6.46%; viability, T/C [34]: 4.78%; viability, T/C [35]: 6.9%; viability, T/C [36]: 7.29%; viability, T/C [37]: 7.09%; viability, T/C [38]: 6.47%; viability, T/C [39]: 5.53%; viability, T/C [40]: 6.11% |
| Nc1ncn(C2CC(O)C(CO)O2)c(=O)n1 (stereo not given) + Cc1ccccc1N=Nc1ccc(NC(=O)c2ccnn2C)c(C)c1 | > 1000 nM | > 1000 nM | > 1000 nM | > 1000 nM | > 1000 nM | 105% | 101% | 106% | 99.5% | 105% | 104% | 100% | 94.9% | 91.3% | 87.1% | 98.3% | 90.6% | 96.6% | 92.9% | 95.2% | viability, T/C [1]: 103%; viability, T/C [2]: 114%; viability, T/C [5]: 105%; viability, T/C [6]: 104%; viability, T/C [9]: 106%; viability, T/C [10]: 112%; viability, T/C [30]: 94.5%; viability, T/C [13]: 104%; viability, T/C [14]: 102%; viability, T/C [33]: 92.8%; viability, T/C [34]: 89.7%; viability, T/C [17]: 93.4%; viability, T/C [18]: 95.3%; viability, T/C [37]: 83.2%; viability, T/C [38]: 77.2% |
